Data on six compounds can be found in ChEMBL document CHEMBL4196131 (J Med Chem, 2018).

Data set [1] has as its system MCF7. As to the kind of experiment: Antiproliferative activity against human MCF7 cells at 5 to 20 uM after 48 hrs in presence of JSH-23 by MTT assay.
The target of data set [2] is T1, Estrogen receptor beta (Homo sapiens, UniProt Q92731). As to the kind of experiment: Binding affinity to human ERbeta LBD after 2 hrs in absence of light by competitive fluorometric binding assay.
T1 sequence (Q92731 whole entry, the tested form may be a part): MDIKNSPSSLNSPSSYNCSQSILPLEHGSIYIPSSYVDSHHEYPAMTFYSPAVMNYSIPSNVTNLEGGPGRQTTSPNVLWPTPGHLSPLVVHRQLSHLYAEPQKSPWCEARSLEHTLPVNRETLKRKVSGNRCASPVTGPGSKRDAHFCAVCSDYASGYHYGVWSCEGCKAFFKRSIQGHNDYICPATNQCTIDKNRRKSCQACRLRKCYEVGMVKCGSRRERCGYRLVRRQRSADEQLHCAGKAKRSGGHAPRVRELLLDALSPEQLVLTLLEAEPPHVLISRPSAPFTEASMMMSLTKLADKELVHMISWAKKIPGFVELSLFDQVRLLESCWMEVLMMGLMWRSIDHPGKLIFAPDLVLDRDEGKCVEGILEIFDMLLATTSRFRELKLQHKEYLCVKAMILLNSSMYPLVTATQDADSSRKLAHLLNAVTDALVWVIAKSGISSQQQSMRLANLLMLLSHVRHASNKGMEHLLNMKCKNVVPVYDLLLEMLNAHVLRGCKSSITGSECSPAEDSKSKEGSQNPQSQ
The subject of data set [3] is MCF7. As to the kind of experiment: Antitumor activity against human MCF7 cells xenografted in nude Balb/c mouse assessed as reduction in tumor burden at 17.5 mg/kg, po administered once every 2 days via gavage measured every 3 days. In kind it is functional, organism-based.
Data set [4] concerns the target T1, Estrogen receptor beta. As to the kind of experiment: Agonist activity at human ERbeta expressed in HEK293T cells after 24 hrs by ERE-based dual luciferase reporter gene assay. In kind it is cell-based. (In a reporter assay the amount or activity of a reporter protein is the signal.)
Data set [5] concerns Mus musculus. As to the kind of experiment: Antiinflammatory activity in Balb/c mouse xenografted with human MCF7 cells assessed as inhibition of TNFalpha expression in tissues around the tumor at 17.5 to 25 mg/kg, po administered once every 2 days via gavage measured after 2 weeks post dose. In kind it is functional, organism-based. (In xenograft studies the graft and the host belong to different species.)

The target of data set [6] is T2, Estrogen receptor (Homo sapiens, UniProt P03372).
T2 sequence (P03372 whole entry): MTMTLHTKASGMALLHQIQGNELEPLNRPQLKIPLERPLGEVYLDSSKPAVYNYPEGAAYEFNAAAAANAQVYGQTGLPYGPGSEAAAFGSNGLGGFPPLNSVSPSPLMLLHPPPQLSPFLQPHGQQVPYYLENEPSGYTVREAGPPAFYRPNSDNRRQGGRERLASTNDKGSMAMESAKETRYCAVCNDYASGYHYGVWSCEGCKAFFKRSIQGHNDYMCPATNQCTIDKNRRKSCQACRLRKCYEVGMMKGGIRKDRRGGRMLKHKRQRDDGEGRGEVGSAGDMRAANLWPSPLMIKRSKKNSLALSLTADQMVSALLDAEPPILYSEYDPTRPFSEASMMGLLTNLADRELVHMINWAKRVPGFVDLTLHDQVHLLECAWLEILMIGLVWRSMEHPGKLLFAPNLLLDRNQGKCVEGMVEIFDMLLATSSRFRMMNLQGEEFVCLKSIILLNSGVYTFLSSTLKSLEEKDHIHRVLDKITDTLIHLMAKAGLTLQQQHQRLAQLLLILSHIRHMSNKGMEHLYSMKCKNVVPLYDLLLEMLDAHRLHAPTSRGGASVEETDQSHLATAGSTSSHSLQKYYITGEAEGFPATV
The data set can be described thus: Antagonist activity at human ERalpha expressed in HEK293T cells after 24 hrs by ERE-based dual luciferase reporter gene assay. In kind it is cell-based.

Data set [7] deals with Mus musculus. As to the kind of experiment: Antiinflammatory activity in Balb/c mouse xenografted with human MCF7 cells assessed as inhibition of NFkappaB expression in tissues around the tumor at 17.5 to 25 mg/kg, po administered once every 2 days via gavage measured after 2 weeks post dose. In kind it is functional, organism-based.
Data set [8] can be described thus: Inhibition of NFkappaB in mouse RAW 264.7 cells assessed as reduction in LPS induced NO production after 24 hrs by Griess assay. The data set is classed as cell-based. The note with it: RAW264.7, 24 h. For orientation: The Griess reaction detects nitrite, a stable product of nitric oxide.
For data set [9], the target named is T3, Estrogen receptor (Homo sapiens) (UniProt P03372).
T3 sequence (whole entry): T2 sequence (P03372 whole entry)
As to the kind of experiment: Antagonist activity at human ERalpha expressed in HEK293T cells after 24 hrs by ERE-based dual luciferase reporter gene assay relative to E2. In kind it is cell-based.

Data set [10] is filed under the species Mus musculus. As to the kind of experiment: Inhibition of NFkappaB in mouse RAW 264.7 cells assessed as reduction in LPS induced NO production at 10 uM after 24 hrs by Griess assay relative to control. The data set is classed as cell-based.
The test system of data set [11] is MCF7. The data set can be described thus: Antitumor activity against human MCF7 cells xenografted in nude Balb/c mouse assessed as reduction in tumor burden at 25 mg/kg, po administered once every 2 days via gavage measured on day 12. On the set-up: scale not given: the % may be the effect or the level left. In kind it is functional.
In data set [12] the test system is MCF7. As to the kind of experiment: cells. Particulars: Homo sapiens, MCF7, 72 h.
For data set [13], the system named is Mus musculus. As to the kind of experiment: Toxicity in nude Balb/c mouse xenografted with human MCF7 cells assessed as reduction in body weight at 17.5 to 25 mg/kg, po administered once every 2 days via gavage measured every 3 days. The note with it: in vivo. The data set is classed as organism-based.
In data set [14] the test system is Mus musculus. The data set can be described thus: Antiinflammatory activity in Balb/c mouse xenografted with human MCF7 cells assessed as inhibition of IL6 expression in tissues around the tumor at 17.5 to 25 mg/kg, po administered once every 2 days via gavage measured after 2 weeks post dose. The data set is classed as functional, organism-based.
In data set [15] the target is T2, Estrogen receptor. The data set can be described thus: Binding affinity to human ERalpha LBD after 2 hrs in absence of light by competitive fluorometric binding assay.
In data set [16] the test system is MCF7. The data set can be described thus: Antitumor activity against human MCF7 cells xenografted in nude Balb/c mouse assessed as tumor growth inhibition at 25 mg/kg, po administered once every 2 days via gavage measured on day 27. In kind it is functional. The note with it: read-out: TGI.
In data set [17] the target is T1, Estrogen receptor beta. As to the kind of experiment: Antagonist activity at human ERbeta expressed in HEK293T cells after 24 hrs by ERE-based dual luciferase reporter gene assay relative to E2. The data set is classed as cell-based. On the set-up: concentration or dose not given beside the values.
Data set [18] concerns the target T3, Estrogen receptor (Homo sapiens). The data set can be described thus: Agonist activity at human ERalpha expressed in HEK293T cells after 24 hrs by ERE-based dual luciferase reporter gene assay relative to E2. In kind it is cell-based.
Data set [19] addresses T1, Estrogen receptor beta. The data set can be described thus: Antagonist activity at human ERbeta expressed in HEK293T cells after 24 hrs by ERE-based dual luciferase reporter gene assay. The data set is classed as cell-based.
Data set [20] has as its target T1, Estrogen receptor beta. As to the kind of experiment: Agonist activity at human ERbeta expressed in HEK293T cells after 24 hrs by ERE-based dual luciferase reporter gene assay relative to E2. The data set is classed as cell-based.
Data set [21] has as its system MCF7. As to the kind of experiment: Antiproliferative activity against human MCF7 cells after 72 hrs in presence of OBHS by MTT assay. Particulars: MCF7, 72 h.
Data set [22] is filed under the species Mus musculus. The data set can be described thus: Inhibition of NFkappaB in mouse RAW 264.7 cells assessed as reduction in LPS induced NO production at 10 uM after 24 hrs in presence of OBHS by Griess assay relative to control. In kind it is cell-based.
The nature of data set [23]: Inhibition of NFkappaB in mouse RAW 264.7 cells assessed as reduction in LPS induced NO production after 24 hrs in presence of OBHS by Griess assay. Particulars: RAW264.7, 24 h.
For data set [24], the species on record is Mus musculus. The data set can be described thus: Inhibition of NFkappaB in mouse RAW 264.7 cells assessed as reduction in LPS induced NO production at 10 uM after 24 hrs in presence of resveratrol by Griess assay relative to control. The data set is classed as cell-based.
The nature of data set [25]: Inhibition of NFkappaB in mouse RAW 264.7 cells assessed as reduction in LPS induced NO production after 24 hrs in presence of resveratrol by Griess assay relative to control. The data set is classed as cell-based. Particulars: RAW264.7, 24 h.
For data set [26], the system named is MCF7. As to the kind of experiment: Antiproliferative activity against human MCF7 cells after 72 hrs in presence of resveratrol by MTT assay. The data set is classed as functional, cell-based. Particulars: MCF7, 72 h.

Active and inactive are the calls of the source. The rule behind the calls is not given here.

One may read the Ki as the equilibrium dissociation constant of an inhibitor or competing ligand from its target. For orientation: EC50 means the concentration that produces a half-maximal response. The term inhibition denotes the relative decrease from the control value, in per cent. For orientation: IC50 means the concentration at which inhibition is half-maximal. Regarding `COc1cc(/C=C/c2ccc(OS(=O)(=O)C3CC4OC3C(c3ccc(O)cc3)=C4c3ccc(O)cc3)cc2)cc(OC)c1` (centres undefined), the result in the data set on MCF7 [1] was inactive. In addition, the results for the Ki on Estrogen receptor beta [2] and on Estrogen receptor [15] were 0.0734 µM and 0.0349 µM, respectively. Moreover, in the data set on MCF7 [3], the outcome was Active. At Estrogen receptor beta [4], this compound gave an EC50 of 0.004 µM. The inhibition entry in the data set on Mus musculus [5], in the data set with Mus musculus [7] and with Mus musculus [14] was “Active” each time. Besides, the IC50 against Estrogen receptor [6] was 0.007 µM; in [8], 0.44 µM; with MCF7 [12] it was 3.7 µM; against Estrogen receptor beta [19], 0.934 µM. Besides, the Efficacy is 48% in [9], 32% at Estrogen receptor beta [17], 9 to 23% in data set [18] and 23% at Estrogen receptor beta [20]. Also, in the data set listed under Mus musculus [10], the inhibition was 95.6%. Also, the Activity is reported as 55% in the data set with MCF7 [11] and “Non-Toxic” with Mus musculus [13]. Besides, the inhibition in vivo at 25 mg/kg in the data set with MCF7 [16] is at most 69%.

Consider `COc1cc(/C=C/c2ccc(C3=C(c4ccc(O)cc4)C4CC(S(=O)(=O)Oc5ccc(Br)cc5)C3O4)cc2)cc(OC)c1` (centres undefined), for which the Ki at Estrogen receptor beta [2] and on Estrogen receptor [15] was above 10 µM each time. Besides, the IC50 on Estrogen receptor [6] is 9.27 µM; in data set [8], above 100 µM; in the data set on MCF7 [12] it was above 100 µM. Moreover, the Efficacy in data set [9] was 97%; at Estrogen receptor beta [17], 94%; in data set [18], 18%; on Estrogen receptor beta [20], 6%. The inhibition in the data set filed under Mus musculus [10] came to 30.8%.

Consider `Oc1ccc(/C=C/c2cc(O)cc(O)c2)cc1` [RESVERATROL], for which the IC50 with MCF7 [21] amounted to 25.4 µM; in data set [8], 13.1 µM; in the data set on MCF7 [12], 22.9 µM; in data set [23] it was 11 µM. For the same compound, the inhibition in the data set filed under Mus musculus [10] is 48%; in the data set filed under Mus musculus [22], 80.4%.

For `COc1cc(/C=C/c2ccc(C3=C(c4ccc(O)cc4)C4CC(S(=O)(=O)Oc5ccccc5)C3O4)cc2)cc(OC)c1` (centres undefined), the Ki on Estrogen receptor beta [2] and on Estrogen receptor [15] was above 10 µM throughout. Also, on Estrogen receptor beta [4], it took 5.76 µM to reach a half-maximal effect (EC50). For the same compound, the 50% inhibitory concentration (IC50) (in data set [8]; in the data set on MCF7 [12]) was above 100 µM throughout. The Efficacy in data set [9] amounted to 89%; on Estrogen receptor beta [17], 85%; in data set [18], 10%; at Estrogen receptor beta [20] it was 57%. For the same compound, the inhibition in the data set listed under Mus musculus [10] worked out at 20.4%.

Consider `O=S(=O)(Oc1ccccc1)[C@H]1C[C@@H]2O[C@@H]1C(c1ccc(O)cc1)=C2c1ccc(O)cc1` (relative stereo), for which the inhibition in the data set listed under Mus musculus [24] turned out to be 80.4%; in the data set listed under Mus musculus [10], 41.5%. Also, the half-inhibitory concentration (IC50) in [25] was 11 µM; with MCF7 [26] it was 25.4 µM; in [8], 18.4 µM; in the data set with MCF7 [12], 32 µM.

In the case of `CC/C(=C(\c1ccccc1)c1ccc(OCCN(C)C)cc1)c1ccccc1` [TAMOXIFEN], the Activity with MCF7 [11] amounted to 48%. In addition, in the data set on MCF7 [16], the inhibition in vivo at 25 mg/kg is 33%.
